Results reported in patent publication US20240261418A1, “SOS1 DEGRADING AGENT AND PREPARATION METHOD THEREFOR AND APPLICATION THEREOF” (SHANGHAI LEADINGTAC PHARMACEUTICAL CO. LTD., priority 2021, published 2024).

Molecular target: T1, SOS1 protein (Homo sapiens, UniProt Q07889)
T1 sequence (Q07889 1-1333): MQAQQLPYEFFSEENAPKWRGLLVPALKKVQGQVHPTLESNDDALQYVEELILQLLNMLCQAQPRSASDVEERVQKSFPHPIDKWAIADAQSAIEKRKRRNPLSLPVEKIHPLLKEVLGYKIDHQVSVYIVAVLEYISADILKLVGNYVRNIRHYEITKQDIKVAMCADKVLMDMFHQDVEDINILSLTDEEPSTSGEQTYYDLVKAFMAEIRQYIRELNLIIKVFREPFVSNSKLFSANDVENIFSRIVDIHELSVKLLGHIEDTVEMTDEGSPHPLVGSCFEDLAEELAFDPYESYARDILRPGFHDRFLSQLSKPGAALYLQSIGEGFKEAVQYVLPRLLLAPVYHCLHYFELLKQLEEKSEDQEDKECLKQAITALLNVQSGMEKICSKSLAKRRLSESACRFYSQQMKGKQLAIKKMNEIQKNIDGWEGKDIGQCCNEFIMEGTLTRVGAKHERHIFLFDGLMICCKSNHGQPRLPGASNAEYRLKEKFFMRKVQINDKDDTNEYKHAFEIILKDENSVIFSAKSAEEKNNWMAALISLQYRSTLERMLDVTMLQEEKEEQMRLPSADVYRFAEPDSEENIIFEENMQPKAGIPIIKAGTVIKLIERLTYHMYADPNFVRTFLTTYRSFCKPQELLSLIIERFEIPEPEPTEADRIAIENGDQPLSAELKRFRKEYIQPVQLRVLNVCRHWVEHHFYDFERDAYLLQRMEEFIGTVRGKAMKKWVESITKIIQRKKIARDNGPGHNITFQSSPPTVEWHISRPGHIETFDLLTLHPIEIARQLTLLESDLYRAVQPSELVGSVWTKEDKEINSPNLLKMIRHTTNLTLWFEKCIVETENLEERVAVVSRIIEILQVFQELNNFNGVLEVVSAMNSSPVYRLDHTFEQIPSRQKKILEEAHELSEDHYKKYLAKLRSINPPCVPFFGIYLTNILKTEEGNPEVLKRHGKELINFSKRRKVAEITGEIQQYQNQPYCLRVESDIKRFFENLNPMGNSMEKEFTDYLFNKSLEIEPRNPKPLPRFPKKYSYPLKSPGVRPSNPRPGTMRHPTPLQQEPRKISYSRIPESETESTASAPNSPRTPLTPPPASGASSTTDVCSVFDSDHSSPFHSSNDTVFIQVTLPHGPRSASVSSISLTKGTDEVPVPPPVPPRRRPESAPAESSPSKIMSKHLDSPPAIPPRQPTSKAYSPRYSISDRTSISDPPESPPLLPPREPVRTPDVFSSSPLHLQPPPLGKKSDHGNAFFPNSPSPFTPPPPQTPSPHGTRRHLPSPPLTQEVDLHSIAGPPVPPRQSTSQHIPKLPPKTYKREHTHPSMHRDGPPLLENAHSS
Assay: SOS1 degradation assay (Western blot) in NCI-H358 cells
Format: cell-based
Conditions: NCI-H358 (KRAS G12C), 24 h
Method: The specific procedures were as follows:
0.95 mL of cells were seeded into each well of a 24-well cell culture plate to achieve a cell density of 5×10^5 cells/well; the cell plate was incubated in an incubator at 37° C. with 5% CO2 overnight. Then 50 μL of the compound solution after dilution was added to each of the wells with the corresponding cells, so that the final concentration of the compound was in a range of 0.03-3000 nM.
After dosing, the cell plate was incubated in an incubator at 37° C. with 5% CO2 for 24 h. […] After the plate was left to stand on ice for 30 min, the protein lysate in each well was transferred to a 1.5 mL centrifuge tube and centrifuged at 15000 g for 20 min at 4° C. The cell lysate supernatant after centrifugation was cryopreserved at −80° C. for testing and was used for determining the degradation level of the SOS1 protein by a WB method. The concentration of total protein in the cell lysate supernatant was determined using the BCA Protein Quantification Kit (Tiangen, PA115-02).
The concentration of total protein in the cell lysate was determined by BCA. The total protein was adjusted to 0.5 μg/μL with PBS and 5×SDS- PAGE protein loading buffer (Beyotime, P001L), incubated in a water bath at 100° C. for 15 min, incubated in an ice bath on ice for 5 min, centrifuged at 14000 g for 1 min at 4° C., and mixed well as a loading sample for WB. Protein electrophoresis was performed on a precast gel (KeyGEN, KGMG010W15) with a loading volume of 10 μL (total protein: 5 μg) using a Tris-MOPS-SDS running solution (Adamas, P1598253) at a constant voltage of 120 V for 55 min. After the electrophoresis, the protein on the gel strip was transferred to a PVDF membrane at a constant current of 250 mA for 65 min. After the membrane transfer, the membrane was incubated in 1× QuickBlock blocking buffer (Beyotime, P0235) for 30 min at room temperature. […] The protein map was subjected to gray value analysis by the chemiluminescence imaging system from Clinx. […] Then the degradation rate was calculated by comparing the gray correction value with the gray correction value of the control group. Then nonlinear curve fitting was performed by GraphPad Prism 8 in the logarithmic concentration-inhibition rate to obtain the DC50 and Dmax values of the compounds.

| DC50 [nM] | Dmax [%] | SMILES |
| --- | --- | --- |
| < 50 | 80 to 100 | COc1cc2nc(C)nc(N[C@H](C)c3cc(-c4c(Cl)cccc4CN(C)C)cs3)c2cc1[C@H]1CC[C@H](C(=O)N2CCC(CCOCC3CCN(C(=O)c4ccc(Cl)c(N5CCC(=O)NC5=O)c4)CC3)CC2)CC1 [Example 5, 1-(2-chloro-5-(4-((2-(1-((1R,4R)-4-(4-(((R)-1-(4-(2-chloro-6-((dimethylamino)methyl)phenyl)thien-2-yl)ethyl)amino)-7-methoxy-2-methylquinazolin-6-yl)cyclohexane-1-carbonyl)piperidin-4-yl)ethoxy)methyl)piperidine-1-carbonyl)phenyl)dihydropyrimidine-2,4(1H,3H)-dione] |
| < 50 | 80 to 100 | COc1cc2nc(C)nc(N[C@H](C)c3cc(-c4c(Cl)cccc4CN(C)C)cs3)c2cc1[C@H]1CC[C@H](C(=O)N2CCN(CC3CCC4(CC3)CCN(C(=O)c3ccc(Cl)c(N5CCC(=O)NC5=O)c3)CC4)CC2)CC1 [Example 1, 1-(2-chloro-5-(9-((4-((1R,4R)-4-(4-(((R)-1-(4-(2-chloro-6-((dimethylamino)methyl)phenyl)thien-2-yl)ethyl)amino)-7-methoxy-2-methylquinazolin-6-yl)cyclohexane-1-carbonyl)piperazin-1-yl)methyl)-3-azaspiro[5.5]undecane-3-carbonyl)phenyl)dihydropyrimidine-2,4(1H,3H)-dione] |
